Tested on: human Kv3.1 channels
Assay: Kv3.1 channel modulation, IonWorks Quattro planar array electrophysiology in HEK-hKv3.1 cells
Format: cell-based
Conditions: hKv3.1 HEK cells, -15 mV step
Description: The ability of the compounds of the invention to modulate the voltage-gated potassium channel subtypes Kv3.3/Kv3.2/Kv3.1 may be determined using the following assay. Analogous methods may be used to investigate the ability of the compounds of the invention to modulate other channel subtypes.
To assess compound effects on human Kv3.1 channels (hKv3.1): Human embryonic kidney (HEK)-hKv3.1 cell line is generated by transfecting HEK-293 cells with an expression vector with human Kv3.1 (NM_004976.4). Cells are cultured with MEM supplemented with 10% Heat-Inactivated FBS, 2 mM L-glutamine, 1% Penicillin-Streptomycin, and 0.6 mg/ml of Geneticin (G418). HEK-hKv3.1b cells were amplified in T175 cm2 flask at 37° C. with 5% CO2, using MEM amplification medium, containing the G418 selection antibiotic (0.6 mg/ml). Cells were detached every 3-4 days, using DPBS to wash twice the flask, then TrypLE to dislodge the cells, and re-plated at a density of 2-4×10^6 cells/flask.
The day of the experiment, cells are removed from the incubator and the culture medium removed. […]
Experiments are conducted at r.t. using IonWorks Quattro™ planar array electrophysiology technology (Molecular Devices Corp.) with PatchPlate™ PPC. […] Planar electrode hole resistances (Rp) are determined by applying a 10 mV voltage step across each well. […]

Kv3.1 pEC50 (EC50 = 50% of maximum increase by reference compound): 5.10
Structure (SMILES): CC[C@@H]1NC(=O)N(c2cnc(Oc3ccc(C)c4c3C3(CC3)CO4)cn2)C1=O [Example 15, (5S)-5-ethyl-3-[5-(7-methylspiro[2H-benzofuran-3,1′-cyclopropane]-4-yl)oxypyrazin-2-yl]imidazolidine-2,4-dione]
Kv3.1 max R % (normalised to maximum effect of reference compound (50 microM)): 136%
